Drawing on ChEMBL document CHEMBL1150457, “-hydroxyamide derived aminodiols as potent inhibitors of hiv protease” (Bioorg Med Chem Lett, 1995), this text covers IC50, EC50 and Ki for 21 molecules.

For test [1], the target named is T1, Human immunodeficiency virus type 1 protease (Human immunodeficiency virus 1, UniProt Q72874). The experiment in a line: In vitro inhibition of HIV-1 protease.
The test system of test [2] is Human immunodeficiency virus 1. The experiment in a line: Concentration required to inhibit HIV-1 virus replication by 50% as determined by XTT. It counts as functional. The conditions noted are these: read-out: ED50 (the source's name).
The target of test [3] is T1, Human immunodeficiency virus type 1 protease. The experiment in a line: Inhibition constant against HIV protease was determined.

The molecule `CC(C)(C)OC(=O)N[C@@H](Cc1ccccc1)[C@H](O)CNC[C@@H](O)[C@H](Cc1ccccc1)NC(=O)[C@@](C)(O)C(C)(C)C` came in with a concentration for half-maximal inhibition (IC50) in test [1] of 40 nM. Moreover, the EC50 in test [2] (Human immunodeficiency virus 1) amounted to 60 nM. In test [3], this molecule returned an inhibition constant (Ki) of 24 nM.
As for `CC(C)(C)OC(=O)N[C@@H](Cc1ccccc1)[C@H](O)CNC[C@@H](O)[C@H](Cc1ccccc1)NC(=O)[C@@H](O)C(C)(C)C`, half-maximal inhibition in test [1] (IC50) required 1200 nM.
In the case of `CC(C)(C)CC(=O)N[C@@H](Cc1ccccc1)[C@H](O)CNC[C@@H](O)[C@H](Cc1ccccc1)NC(=O)OC(C)(C)C`, in test [2] (Human immunodeficiency virus 1), the EC50 came out at 1200 nM.
In turn, `CC(C)(C)OC(=O)N[C@@H](Cc1ccccc1)[C@H](O)CNC[C@@H](O)[C@H](Cc1ccccc1)NC(=O)[C@@H](O)c1ccccc1` registered an IC50 in test [1] greater than 10000 nM.
In test [1], `CC(C)(C)OC(=O)N[C@@H](Cc1ccccc1)[C@H](O)CNC[C@@H](O)[C@H](Cc1ccccc1)NC(=O)[C@@](C)(O)c1ccccc1` registered an IC50 of 260 nM. Besides, the EC50 in test [2] (Human immunodeficiency virus 1) is 1350 nM.
In the same order, the values of `CC(C)(C)OC(=O)N[C@@H](Cc1ccccc1)[C@H](O)CNC[C@@H](O)[C@H](Cc1ccccc1)NC(=O)C(C)(C)O` are 450 nM and 970 nM.
Consider `CC(C)(C)OC(=O)N[C@@H](Cc1ccccc1)[C@H](O)CNC[C@@H](O)[C@H](Cc1ccccc1)NC(=O)OC(C)(C)C`, for which the EC50 in test [2] (Human immunodeficiency virus 1) was 80 nM. The molecule also registered an inhibition constant Ki in test [3] of 100 nM.
The molecule `CC(C)(C)OC(=O)N[C@@H](Cc1ccccc1)[C@H](O)CNC[C@@H](O)[C@H](Cc1ccccc1)NC(=O)[C@H](O)C(C)(C)C` showed an IC50 in test [1] of 50 nM. For the same molecule, the EC50 in test [2] (Human immunodeficiency virus 1) came out at 55 nM.
Taken in the same sequence, the figures for `CC(C)(C)OC(=O)N[C@@H](Cc1ccccc1)[C@H](O)CNC[C@@H](O)[C@H](Cc1ccccc1)NC(=O)[C@](C)(O)C(C)(C)C` were 900 nM and 1380 nM.
`CC(C)(C)OC(=O)N[C@@H](Cc1ccccc1)[C@H](O)CNC[C@@H](O)[C@H](Cc1ccccc1)NC(=O)[C@](C)(O)c1ccccc1` had a half-maximal inhibitory concentration (IC50) in test [1] of 6500 nM.
Regarding `CC(C)(C)OC(=O)N[C@@H](Cc1ccccc1)[C@H](O)CNC[C@@H](O)[C@H](Cc1ccccc1)NC(=O)[C@H](O)c1ccccc1`, the half-maximal inhibitory concentration (IC50) in test [1] stood at 320 nM. Moreover, the EC50 in test [2] (Human immunodeficiency virus 1) stood at 650 nM.
In the same order, the values of `CC(C)(C)OC(=O)N[C@@H](Cc1ccccc1)[C@H](O)CNC[C@@H](O)[C@H](Cc1ccccc1)NC(=O)C(O)C(F)(F)F` (single isomer, unassigned; isomer A) are 40 nM and 60 nM.
Molecule `CC(C)(C)OC(=O)N[C@@H](Cc1ccccc1)[C@H](O)CNC[C@@H](O)[C@H](Cc1ccccc1)NC(=O)C(O)(CO)C(C)(C)C` (single isomer, unassigned; isomer B) yielded an IC50 in test [1] of 10000 nM.
`CC(C)(C)OC(=O)N[C@@H](Cc1ccccc1)[C@H](O)CNC[C@@H](O)[C@H](Cc1ccccc1)NC(=O)C1(O)CCCC1(C)C` (single isomer, unassigned; isomer B) displayed an IC50 in test [1] of 250 nM. In test [2], the EC50 was found to be 375 nM.
With `CC(C)(C)OC(=O)N[C@@H](Cc1ccccc1)[C@H](O)CNC[C@@H](O)[C@H](Cc1ccccc1)NC(=O)C(O)C(F)(F)F` (stereo in doubt), in test [1], half-maximal inhibition (IC50) required 2200 nM.
Consider `CC(C)(C)OC(=O)N[C@@H](Cc1ccccc1)[C@H](O)CNC[C@@H](O)[C@H](Cc1ccccc1)NC(=O)C(O)(CO)C(C)(C)C` (stereo in doubt), for which half-maximal inhibition in test [1] (IC50) required 60 nM. Also, the EC50 in test [2] (Human immunodeficiency virus 1) was found to be 25 nM.
Take `CC(C)(C)OC(=O)N[C@@H](Cc1ccccc1)[C@H](O)CNC[C@@H](O)[C@H](Cc1ccccc1)NC(=O)C1(O)CCCC1(C)C` (stereo in doubt): the half-maximal inhibitory concentration (IC50) in test [1] amounted to 15 nM. The EC50 in test [2] is 30 nM.
On to `CC(C)(C)OC(=O)N[C@@H](Cc1ccccc1)[C@H](O)CNC[C@@H](O)[C@H](Cc1ccccc1)NC(=O)C(C)(O)C(C)(C)CO` (stereo in doubt; form 1), for which the IC50 in test [1] amounted to 120 nM. Besides, in test [2], the EC50 is 110 nM.
In test [1], `CC(C)(C)OC(=O)N[C@@H](Cc1ccccc1)[C@H](O)CNC[C@@H](O)[C@H](Cc1ccccc1)NC(=O)C1(O)COCC1(C)C` (stereo in doubt; form 1) had an IC50 of 3500 nM.
In test [1], `CC(C)(C)OC(=O)N[C@@H](Cc1ccccc1)[C@H](O)CNC[C@@H](O)[C@H](Cc1ccccc1)NC(=O)C(C)(O)C(C)(C)CO` (stereo in doubt; form 2) showed a half-inhibitory concentration (IC50) of 130 nM. The EC50 in test [2] (Human immunodeficiency virus 1) turned out to be 160 nM.
Consider `CC(C)(C)OC(=O)N[C@@H](Cc1ccccc1)[C@H](O)CNC[C@@H](O)[C@H](Cc1ccccc1)NC(=O)C1(O)COCC1(C)C` (stereo in doubt; form 2), for which, in test [1], half-maximal inhibition (IC50) required 220 nM. Also, the EC50 in test [2] (Human immunodeficiency virus 1) was 230 nM.
